Laboratory results published in patent EP2103614A1, “Substituted imidazopyrimidine, imidazopyrazine and imidazopyridazine derivatives as melanocortin-4 receptor modulators” (Santhera Pharmaceuticals (Schweiz) AG, priority 2008, dated 2009).
Read-outs that look alike come from different tables or passages of the source.

Columns and labels:
[1] = target: T1, hMC-4R (Homo sapiens, UniProt P32245); assay: Functional assay (membrane based cAMP fluorescence polarization, agonistic activity); type: biochemical; conditions: cAMP produced compared to stimulation with NDP-alpha-MSH; read-out: % activation functional assay
T1 construct: expressed in transfected cells; host or cells: HEK293
Protocol: Agonistic activity of human melanocortin receptors is determined in a homogeneous membrane based assay.
Membrane preparations from HEK293 cells expressing the human melanocortin receptors are added. After a short preincubation period, an appropriate amount of ATP, GTP and the cAMP antibody is added and the plate is further incubated before the fluorescence labeled cAMP conjugate is dispensed. The plate is incubated for 2 h at 4°C before it is read on a fluorescence polarization microplate reader. The amount of cAMP produced as a response to a test compound is compared to the production of cAMP resulting from stimulation with NDP-alpha-MSH.

[2] = target: T1, hMC-4R; assay: Membrane binding assay (fluorescence polarization, competition with fluorescence labeled NDP-alpha-MSH)
[3] = HEK293 cell membrane preparations expressing human melanocortin receptors, 5 h at room temperature, read-out: hMC-4R binding assay IC50/µM

T1 sequence (P32245 whole entry): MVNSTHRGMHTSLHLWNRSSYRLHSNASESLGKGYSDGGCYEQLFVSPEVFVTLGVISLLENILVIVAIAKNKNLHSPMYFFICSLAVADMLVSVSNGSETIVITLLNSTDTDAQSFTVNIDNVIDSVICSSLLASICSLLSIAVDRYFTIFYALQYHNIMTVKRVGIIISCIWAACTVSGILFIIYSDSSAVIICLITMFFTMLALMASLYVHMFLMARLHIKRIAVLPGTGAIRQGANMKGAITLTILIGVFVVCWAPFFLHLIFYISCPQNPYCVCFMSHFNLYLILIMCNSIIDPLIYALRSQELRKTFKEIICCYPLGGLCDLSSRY

SMILES	Emax [1] [%]	IC50 [2] [µM]	IC50 [2, 3] [µM]
COc1ccc(Nc2nc3ccc(C(=O)N(CCC(C)C)CCC(C)C)nn3c2CCCN)cc1 [Example 1]	0	0.49	–
CC(C)CCN(CCC(C)C)C(=O)c1ccc2nc(-c3ccc4c(c3)OCCO4)c(CCCN)n2n1 [Example 2]	0	1.1	–
CC(C)CCN(CCC(C)C)C(=O)c1ccc2nc(-c3ccc4c(c3)OCCO4)c(CCCN3CCCCC3)n2n1 [Example 3]	0	–	0.12
CC(C)CCN(CCC(C)C)C(=O)c1ccc2nc(-c3ccc(C#N)cc3)c(CCCN3CCCC3)n2n1 [Example 4]	0	0.3	–
CC(C)CCN(CCC(C)C)C(=O)c1cnc2nc(-c3ccc(C#N)cc3)c(CCCN3CCCC3)n2c1 [Example 5]	0	0.18	–
CC(C)CCN(CCC(C)C)C(=O)c1cnc2nc(-c3ccc(C#N)cc3)c(CCCN(C)C)n2c1 [Example 6]	0	1	–
CC(C)CCN(CCC(C)C)C(=O)c1cn2c(CCCN3CCCC3)c(-c3ccc(C#N)cc3)nc2cn1 [Example 7]	0	0.02	–
CC(C)CCN(CCC(C)C)C(=O)c1cn2c(CCCN(C)C)c(-c3ccc(C#N)cc3)nc2cn1 [Example 8]	0	–	0.19
CC(C)CCN(CCC(C)C)C(=O)c1cn2c(CCCN3CCCC3)c(-c3ccc(C(N)=O)cc3)nc2cn1 [Example 9]	0	–	0.048
CC(C)CCN(CCC(C)C)C(=O)c1cn2c(CCCN(C)C)c(-c3ccc(C(N)=O)cc3)nc2cn1 [Example 10]	0	0.28	–
